Experimental data as given in patent US12581252B2, “Substituted pyrrolo[3,4-b]pyridines as PI3K-α inhibitors” (Relay Therapeutics, Inc., priority 2020, dated 2026).

Each compound was assayed against H1047R PIK3CA enzyme (Homo sapiens, UniProt P42336, H1047R) (assay: ADP-Glo Biochemical PIK3CA Kinase Assay).
Sequence of H1047R PIK3CA enzyme (P42336 whole entry H1047R): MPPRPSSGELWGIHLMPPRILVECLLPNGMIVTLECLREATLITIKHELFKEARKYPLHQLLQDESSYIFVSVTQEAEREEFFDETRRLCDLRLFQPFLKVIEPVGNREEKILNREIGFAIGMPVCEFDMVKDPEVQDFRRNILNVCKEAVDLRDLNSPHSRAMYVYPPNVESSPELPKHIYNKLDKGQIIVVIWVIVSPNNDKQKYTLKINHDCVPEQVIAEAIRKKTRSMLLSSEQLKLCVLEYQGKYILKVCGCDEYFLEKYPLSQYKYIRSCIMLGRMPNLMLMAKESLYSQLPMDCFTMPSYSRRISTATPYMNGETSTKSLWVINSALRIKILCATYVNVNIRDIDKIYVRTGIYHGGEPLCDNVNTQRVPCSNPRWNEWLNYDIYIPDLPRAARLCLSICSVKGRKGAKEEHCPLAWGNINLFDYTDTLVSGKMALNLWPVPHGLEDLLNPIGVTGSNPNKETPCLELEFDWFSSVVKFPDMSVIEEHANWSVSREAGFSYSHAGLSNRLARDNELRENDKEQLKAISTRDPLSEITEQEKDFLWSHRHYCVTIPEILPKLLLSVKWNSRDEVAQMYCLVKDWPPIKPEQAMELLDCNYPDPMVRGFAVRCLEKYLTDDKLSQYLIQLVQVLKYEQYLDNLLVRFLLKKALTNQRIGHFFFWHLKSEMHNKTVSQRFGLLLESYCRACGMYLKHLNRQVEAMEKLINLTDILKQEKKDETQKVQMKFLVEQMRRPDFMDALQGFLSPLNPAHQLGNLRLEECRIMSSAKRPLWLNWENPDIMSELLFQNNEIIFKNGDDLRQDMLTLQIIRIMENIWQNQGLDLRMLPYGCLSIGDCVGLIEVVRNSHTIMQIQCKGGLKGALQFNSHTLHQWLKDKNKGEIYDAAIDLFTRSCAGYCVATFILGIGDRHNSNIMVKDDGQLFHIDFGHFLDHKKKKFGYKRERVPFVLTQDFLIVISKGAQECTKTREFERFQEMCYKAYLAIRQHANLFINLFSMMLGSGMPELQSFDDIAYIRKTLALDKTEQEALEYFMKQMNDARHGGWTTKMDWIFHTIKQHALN
Sequence of H1047R PIK3CA enzyme (P27986 whole entry partner): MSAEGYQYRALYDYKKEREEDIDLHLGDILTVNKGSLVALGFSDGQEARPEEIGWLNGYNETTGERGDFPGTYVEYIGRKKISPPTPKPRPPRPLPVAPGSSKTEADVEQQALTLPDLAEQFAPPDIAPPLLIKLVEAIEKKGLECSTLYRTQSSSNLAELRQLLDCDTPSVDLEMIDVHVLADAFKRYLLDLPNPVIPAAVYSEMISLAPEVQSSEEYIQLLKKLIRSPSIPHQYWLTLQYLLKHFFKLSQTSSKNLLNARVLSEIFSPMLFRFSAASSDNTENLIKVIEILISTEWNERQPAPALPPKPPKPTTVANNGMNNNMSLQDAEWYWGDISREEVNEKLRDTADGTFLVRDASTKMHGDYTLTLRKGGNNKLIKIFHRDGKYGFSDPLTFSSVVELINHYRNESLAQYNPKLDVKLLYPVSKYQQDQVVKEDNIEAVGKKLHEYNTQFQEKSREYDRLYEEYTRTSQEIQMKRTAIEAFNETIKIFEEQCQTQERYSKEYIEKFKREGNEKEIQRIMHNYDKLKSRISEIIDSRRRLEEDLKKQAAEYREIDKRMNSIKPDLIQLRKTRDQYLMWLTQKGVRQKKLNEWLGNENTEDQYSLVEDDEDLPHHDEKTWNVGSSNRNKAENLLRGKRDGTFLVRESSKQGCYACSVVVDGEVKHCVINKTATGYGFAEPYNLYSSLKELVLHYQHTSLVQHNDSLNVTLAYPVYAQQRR

First: O=C(Nc1cccc2c1C(c1cc(Cl)cc(F)c1F)NC2=O)c1cc(F)cc(C(F)(F)F)c1 (stereo not drawn) [Compound I-401]
Second: Cc1cc(F)ccc1C1NC(=O)c2cccc(NC(=O)c3cc(F)cc(C(F)(F)F)c3)c21 (stereo not drawn) [Compound I-327]
The IC50 of the first is lower: 0.1 to 0.5 µM for the first, 0.5 to 1 µM for the second. The first is the more potent here.

`Cn1cc(-c2cc(NC(=O)c3cc(F)cc(C(F)(F)F)c3)c3c(n2)C(=O)N[C@H]3c2cc(F)ccc2Cl)cn1` [Compound I-187] and `Cn1cc(-c2cc(NC(=O)c3cc(F)cc(C(F)(F)F)c3)c3c(n2)C(=O)NC3c2cc(F)ccc2Cl)cn1` (stereo not drawn) [Compound I-162] cannot be ordered by IC50: at most 0.1 µM for the first, at most 0.1 µM for the second.

First: O=C(Nc1cc(Cl)nc2c1C(c1cc(F)ccc1Cl)NC2=O)c1cc(F)cc(C(F)(F)F)c1 (stereo not drawn) [Compound I-545]
Second: Cn1c2c(c(NC(=O)c3cc(F)cc(C(F)(F)F)c3)cc1=O)C(c1cc(F)ccc1Cl)NC2=O (stereo not drawn) [Compound I-727]
The IC50 of the first is lower: at most 0.1 µM for the first, 10 to 100 µM for the second. The first is the more potent here.

`CNc1cc(NC(=O)N2C[C@@](O)(C(F)(F)F)c3cc(F)ccc32)c2c(c1C#N)C(=O)N[C@@H]2c1cc(F)ccc1Cl` (single isomer, unassigned) [Compound I-2607] and `O=C1N[C@H](c2cc(F)ccc2Cl)c2c(NC(=O)N3C[C@](O)(C(F)(F)F)c4cc(F)ccc43)cc(Cl)nc21` (single isomer, unassigned) [Compound I-2702] fall in the same range of IC50: 1 to 10 µM for the first, 1 to 10 µM for the second.

`O=C(Nc1cc(-c2ccc3ncnn3c2)cc2c1[C@@H](c1cc(F)ccc1Cl)NC2=O)c1ccc(F)c(OC(F)(F)F)c1` (stereo in doubt) [Compound I-1108] and `O=C1N[C@H](c2cc(F)ccc2Cl)c2c(NC(=O)c3nsc4ccccc34)cc(-c3ccc4ncnn4c3)cc21` (stereo in doubt) [Compound I-1830] fall in the same range of IC50: 1 to 10 µM for the first, 1 to 10 µM for the second.

`CC(C)C1CCN(C(=O)Nc2cccc3c2C(c2cc(F)ccc2Cl)NC3=O)C1` (mixture of isomers) [Compound I-2419] and `O=C1N[C@@H](c2cc(F)ccc2Cl)c2c(NC(=O)N3CCC[C@](O)(C(F)(F)F)C3)cccc21` (single isomer, unassigned) [Compound I-2115] fall in the same range of IC50: 10 to 100 µM for the first, 10 to 100 µM for the second.

Compared with `Cn1cc(Oc2cc(NC(=O)c3cc(F)cc(C(F)(F)F)c3)c3c(c2)C(=O)NC3c2cc(F)ccc2Cl)cn1` (stereo not drawn) [Compound I-1120], `Cn1ncnc1COc1cc(NC(=O)c2cc(F)cc(C(F)(F)F)c2)c2c(c1)C(=O)NC2c1cc(F)ccc1Cl` (stereo not drawn) [Compound I-1221] is lower in IC50: 1 to 10 µM for the first, at most 0.1 µM for the second.

`O=C1N[C@H](c2cc(F)ccc2Cl)c2c(NC(=O)N3C[C@](O)(C(F)F)c4cc(F)ccc43)cc(F)cc21` (single isomer, unassigned) [Compound I-2634] and `O=C1N[C@@H](c2cc(F)ccc2Cl)c2c(NC(=O)N3C[C@](O)(C(F)F)c4cc(F)ccc43)cc(Cl)cc21` (single isomer, unassigned) [Compound I-2590] fall in the same range of IC50: 1 to 10 µM for the first, 1 to 10 µM for the second.

`O=C(Nc1cc(-c2ccc3ncnn3c2)cc2c1[C@@H](c1cc(F)ccc1Cl)NC2=O)c1cc(F)cc2c1NC(=O)C2(F)F` [Compound I-1583] and `O=C1NC(c2cc(F)ccc2Cl)c2c(O)cc(-c3ccc4ncnn4c3)cc21` (stereo not drawn) [Compound I-1891] fall in the same range of IC50: 1 to 10 µM for the first, 1 to 10 µM for the second.

`O=C(Nc1cc(Br)cc2c1C(c1cc(F)ccc1Cl)NC2=O)c1cccc(F)c1` (stereo not drawn) [Compound I-526] and `O=C(Nc1cc(Br)cc2c1C(c1cc(F)ccc1Cl)NC2=O)c1nc2ccccc2[nH]1` (stereo not drawn) [Compound I-1617] fall in the same range of IC50: 1 to 10 µM for the first, 1 to 10 µM for the second.

First: O=C1NC(c2cc(F)ccc2Cl)c2c(NC(=O)C3CC4(CCC4)C3)cc(Br)cc21 (stereo not drawn) [Compound I-1362]
Second: O=C1NC(c2cc(F)ccc2Cl)c2c(NC(=O)N3CC(=O)N4CCCC4C3)cc(Br)cc21 (stereo not drawn) [Compound I-766]
The IC50 of the first is lower: 1 to 10 µM for the first, 10 to 100 µM for the second.

`Cc1ccccc1C1NC(=O)c2cccc(NC(=O)c3cc(Br)sn3)c21` (stereo not drawn) [Compound I-453] and `COc1cccc2c(C(=O)Nc3cccc4c3C(c3ccccc3C)NC4=O)csc12` (stereo not drawn) [Compound I-198] fall in the same range of IC50: 10 to 100 µM for the first, 10 to 100 µM for the second.

First: CC(C)(O)c1cc(NC(=O)N2C[C@@H](O)c3ccccc32)c2c(c1)C(=O)N[C@@H]2c1cc(F)ccc1Cl (single isomer, unassigned) [Compound I-2122]
Second: CC(C)(O)c1cc(NC(=O)N2CCc3ccccc32)c2c(c1)C(=O)NC2c1cc(F)ccc1Cl (stereo not drawn) [Compound I-308]
The IC50 of the first is higher: 10 to 100 µM for the first, at most 0.1 µM for the second.

`O=C(Nc1cc(-c2cn3ncnc3cc2F)cc2c1C(c1cc(F)ccc1Cl)NC2=O)c1cc(F)cc(C(F)(F)F)c1` (stereo not drawn) [Compound I-1652] and `Cc1ncc(-c2cc(NC(=O)c3cc(F)cc(C(F)(F)F)c3)c3c(c2)C(=O)NC3c2cc(F)ccc2Cl)c(N)n1` (stereo not drawn) [Compound I-1122] cannot be ordered by IC50: at most 0.1 µM for the first, at most 0.1 µM for the second.

First: O=C1NC(O)(c2cccc(F)c2F)c2c(NC(=O)c3csc4ccccc34)ccnc21 (stereo not drawn) [Compound I-31]
Second: Cc1ccccc1-n1[nH]c(=O)c2cccc(NC(=O)c3coc4c(F)cc(Cl)cc34)c21 [Compound I-252]
The IC50 of the first is higher: 10 to 100 µM for the first, 0.1 to 0.5 µM for the second.

Compared with `Cn1ncc(-c2cc(NC(=O)c3cc(F)cc(C(F)(F)F)c3)c3c(c2)C(=O)N[C@@H]3c2cc(F)ccc2Cl)c1C#N` [Compound I-1794], `C[S+]([O-])c1ccccc1-c1cc(NC(=O)c2cc(F)cc(C(F)(F)F)c2)c2c(c1)C(=O)NC2c1cc(F)ccc1Cl` (stereo not drawn) [Compound I-1150] is lower in IC50: 1 to 10 µM for the first, at most 0.1 µM for the second.

Compared with `O=C1NC(c2cc(F)ccc2Cl)c2ccc(-c3ccc4ncnn4c3)cc21` (stereo not drawn) [Compound I-1775], `O=C1NC(c2cc(F)ccc2Cl)c2c(Nc3nn(CCO)c4ccccc34)cc(-c3ccc4ncnn4c3)cc21` (stereo not drawn) [Compound I-1807] is lower in IC50: 10 to 100 µM for the first, 1 to 10 µM for the second.

First: CC(C)(CC(=O)Nc1cc(Br)cc2c1C(c1cc(F)ccc1Cl)NC2=O)C(F)(F)F (stereo not drawn) [Compound I-1757]
Second: O=C(Nc1cc(Br)cc2c1C(c1cc(F)ccc1Cl)NC2=O)c1csc(Cl)c1Cl (stereo not drawn) [Compound I-1417]
The IC50 of the first is higher: 10 to 100 µM for the first, 1 to 10 µM for the second. The second is the more potent here.

Compared with `O=C1NC(c2cc(F)ccc2Cl)c2c(NC(=O)C3(c4ccc(Cl)c(Cl)c4)CCCC3)cc(Br)cc21` (stereo not drawn) [Compound I-1636], `O=C(Nc1cc(C2CCO2)cc2c1C(c1cc(F)ccc1Cl)NC2=O)c1cc(F)cc(C(F)(F)F)c1` (racemic) [Compound I-662] is lower in IC50: 10 to 100 µM for the first, 0.1 to 0.5 µM for the second. The second is the more potent here.

Compared with `O=C1NC(c2cc(F)ccc2Cl)c2c1cc(-c1cnn(C(F)F)c1)cc2-c1nc2cc(C(F)(F)F)cc(F)c2[nH]1` (stereo not drawn) [Compound I-2048], `NC(=O)Cn1cc(-c2cc(NC(=O)c3cc(F)cc(C(F)(F)F)c3)c3c(c2)C(=O)NC3c2cc(F)ccc2Cl)cn1` (stereo not drawn) [Compound I-1481] is lower in IC50: 1 to 10 µM for the first, at most 0.1 µM for the second.

`O=C(Nc1cc(-c2ccncc2F)nc2c1C(c1cc(F)ccc1Cl)NC2=O)c1cc(F)cc(C(F)(F)F)c1` (stereo not drawn) [Compound I-548] and `O=C(Nc1cc(-c2ccc3ncnn3c2)nc2c1C(c1cc(F)ccc1Cl)NC2=O)c1cc(F)cc(C(F)(F)F)c1` (stereo not drawn) [Compound I-1226] cannot be ordered by IC50: at most 0.1 µM for the first, at most 0.1 µM for the second.

`O=C(Nc1cc(N[C@@H]2CC[C@H]2O)cc2c1C(c1cc(F)ccc1Cl)NC2=O)c1cc(F)cc(C(F)(F)F)c1` (mixture of isomers) [Compound I-721] and `O=C(Nc1cc(OC2CCOC2)cc2c1C(c1cc(F)ccc1Cl)NC2=O)c1cc(F)cc(C(F)(F)F)c1` (stereo not drawn) [Compound I-1184] cannot be ordered by IC50: at most 0.1 µM for the first, at most 0.1 µM for the second.

`O=C(Nc1cc(OCC(F)F)cc2c1[C@H](c1cc(F)ccc1Cl)NC2=O)c1cc(F)cc(C(F)(F)F)c1` [Compound I-2062] and `CC(=O)Cc1cc(NC(=O)c2cc(F)cc(C(F)(F)F)c2)c2c(c1)C(=O)NC2c1cc(F)ccc1C(F)F` (stereo not drawn) [Compound I-620] cannot be ordered by IC50: at most 0.1 µM for the first, at most 0.1 µM for the second.

`N#CC1CN(c2cc(NC(=O)c3cc(F)cc(C(F)(F)F)c3)c3c(c2)C(=O)NC3c2cc(F)ccc2Cl)C1` (stereo not drawn) [Compound I-723] and `O=C(Nc1cc(N2CC3CNCC3C2=O)cc2c1C(c1cc(F)ccc1Cl)NC2=O)c1cc(F)cc(C(F)(F)F)c1` (stereo not drawn) [Compound I-1291] cannot be ordered by IC50: at most 0.1 µM for the first, at most 0.1 µM for the second.

First: O=C(Nc1cccc2c1C(c1cccc(B(O)O)c1)NC2=O)c1cc(F)cc(C(F)(F)F)c1 (stereo not drawn) [Compound I-717]
Second: O=C(Nc1cccc2c1C(c1cc(F)ccc1Cl)NC2=O)c1cc(F)c(F)c(C(F)(F)F)c1 (stereo not drawn) [Compound I-580]
The IC50 of the first is higher: 10 to 100 µM for the first, at most 0.1 µM for the second.

`O=C(Nc1cc(-c2ccnn2C[C@H]2CCOC2)cc2c1C(c1cc(F)ccc1Cl)NC2=O)c1cc(F)cc(C(F)(F)F)c1` (single isomer, unassigned) [Compound I-1406] and `Cc1cnc2ccc(-c3cc(NC(=O)c4cc(F)cc(C(F)(F)F)c4)c4c(c3)C(=O)NC4c3cc(F)ccc3Cl)nn12` (stereo not drawn) [Compound I-1190] cannot be ordered by IC50: at most 0.1 µM for the first, at most 0.1 µM for the second.

`Cc1ccc(-c2cc(NC(=O)c3cc(F)cc(Cl)c3)c3c(n2)C(=O)NC3c2cc(F)ccc2Cl)cn1` (stereo not drawn) [Compound I-497] and `COc1ccc(Oc2cc(NC(=O)c3cc(F)cc(C(F)(F)F)c3)c3c(c2)C(=O)NC3c2cc(F)ccc2Cl)nn1` (stereo not drawn) [Compound I-1147] cannot be ordered by IC50: 0.1 to 0.5 µM for the first, at most 0.1 µM for the second.

Compared with `O=C1NC(c2cc(F)ccc2Cl)c2c(NC(=O)C34CC5CC(CC(C5)C3)C4)cccc21` (stereo not drawn) [Compound I-876], `O=C1N[C@@H](c2cc(F)ccc2Cl)c2c(NC(=O)[C@@H]3C[C@@H](O)C[C@H](C(F)(F)F)C3)cccc21` (single isomer, unassigned) [Compound I-2175] is higher in IC50: 0.1 to 0.5 µM for the first, 10 to 100 µM for the second.

Compared with `Cc1ccccc1C1NC(=O)c2cc(Br)cc(NC(=O)c3cncc(C(F)(F)F)c3)c21` (stereo not drawn) [Compound I-528], `Nc1nnc2ccc(-c3cc(NC(=O)c4cc(F)cc(C(F)(F)F)c4)c4c(c3)C(=O)N[C@@H]4c3cc(F)ccc3Cl)cn12` [Compound I-1448] is lower in IC50: 1 to 10 µM for the first, 0.5 to 1 µM for the second. The second is the more potent here.

`O=C1NC(c2cc(F)ccc2Cl)c2c(/C=C/c3ccccc3)cccc21` (stereo not drawn) [Compound I-2106] and `O=C1N[C@H](c2cc(F)ccc2Cl)c2c(NC(=O)N3C[C@H](O)c4ccc(F)cc43)cccc21` (stereo in doubt) [Compound I-2174] fall in the same range of IC50: 10 to 100 µM for the first, 10 to 100 µM for the second.

Compared with `O=C1N[C@H](c2cc(F)ccc2Cl)c2c(NC(=O)N3CCC[C@@](O)(C(F)(F)F)C3)cccc21` (single isomer, unassigned) [Compound I-2113], `O=C1NC(c2cc(F)c(F)cc2C(F)F)c2c(NC(=O)c3nsc4ccc(F)cc34)cccc21` (stereo not drawn) [Compound I-332] is lower in IC50: 10 to 100 µM for the first, at most 0.1 µM for the second. The second is the more potent here.

Work on `O=C(Nc1cc(-c2ccc3nnc(C(F)F)n3c2)cc2c1[C@H](c1cc(F)ccc1Cl)NC2=O)c1cc(F)cc(C(F)(F)F)c1` [Compound I-1925] yielded an IC50 of at most 0.1 µM.
